According to patent publication US5387602A, “1.5-diphenyl-3-(N-hydroxycarbamoyloxyalkyl)pyrazoles” (Ortho Pharmaceutical Corporation, priority 1993, dated 1995):

Assays:
[1] = target: T1, RBL-1 Cell Cyclooxygenase (Rattus norvegicus, UniProt Q63921); experiment: Procedure II: cyclooxygenase inhibition in disrupted RBL-1 cells (supernatant as enzyme source); format: biochemical; conditions: for IC50: read-out: IC50 CO (Procedure II)
T1 construct: the supernatant was saved as the source of enzymes; endogenous in cells; host or cells: RBL-1 (rat basophilic leukemia cells), 10,000×g supernatant of homogenate
T1 sequence (Q63921 27-602): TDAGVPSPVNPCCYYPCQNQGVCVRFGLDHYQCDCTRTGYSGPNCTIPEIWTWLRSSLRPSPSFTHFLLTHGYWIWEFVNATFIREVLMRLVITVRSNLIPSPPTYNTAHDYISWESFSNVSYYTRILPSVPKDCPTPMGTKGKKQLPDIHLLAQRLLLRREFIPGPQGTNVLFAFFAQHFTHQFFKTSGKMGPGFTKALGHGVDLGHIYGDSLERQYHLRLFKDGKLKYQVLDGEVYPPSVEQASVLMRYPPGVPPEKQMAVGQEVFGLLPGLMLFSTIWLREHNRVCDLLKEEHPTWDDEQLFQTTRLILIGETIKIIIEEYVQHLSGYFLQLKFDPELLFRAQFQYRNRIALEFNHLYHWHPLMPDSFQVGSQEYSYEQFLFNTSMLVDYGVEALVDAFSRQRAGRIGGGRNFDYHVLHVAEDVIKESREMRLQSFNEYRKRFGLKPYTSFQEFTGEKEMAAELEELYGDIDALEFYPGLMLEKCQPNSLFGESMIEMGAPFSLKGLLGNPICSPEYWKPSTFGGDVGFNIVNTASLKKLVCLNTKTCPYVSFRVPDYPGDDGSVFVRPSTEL
Procedure: (§1) RBL-1 Cell 5-Lipoxygenase and Cyclooxygenase
(§2) Rat basophilic leukemia cells (RBL-1; 5×10^7 viable cells/mL) were disrupted by homogenization on ice (four 20 sec bursts) with a Brinkman polytron. Complete cell breakage was verified microscopically. The homogenate was then centrifuged at 10,000×g for 48 minutes at 4° C. The pellet was discarded and the supernatant was saved as the source of enzymes. The supernatant was pre-incubated for five minutes at 37° C. in the presence of 2 mM of CaCl2 and compound or vehicle (1% DMSO). The conversion of AA into 5-LO products was initiated by adding 10 μL (50 μCi) of 1-^14 C-AA to each tube and incubated at 37° C. for 20 minutes. The reaction was stopped by adjusting the pH of each sample to 3 to 3.5 with 2M formic acid. Samples were extracted with three volumes of chloroform to isolate the products of 5-LO formed during the reaction. Fractions were dried under nitrogen, then resuspended in 40 μL of chloroform and spotted onto silica gel HL plates. The plates were developed in A-9 solvent. The dried plates were analyzed using a Bioscan Imaging TLC scanner to determine the percentage of radiolabelled AA converted to 5-HETE in each sample.
(§3) In the following tables, the superscripts indicate the number of experiments and, unless otherwise stated, the dose at which % inhibition is reported is 3 MPK.

[2] = target: T2, RBL-1 Cell 5-Lipoxygenase (Rattus norvegicus, UniProt P12527); experiment: Procedure II: 5-lipoxygenase inhibition in disrupted RBL-1 cells (supernatant as enzyme source); format: biochemical; conditions: for IC50: read-out: IC50 5-LO (Procedure II)
T2 construct: the supernatant was saved as the source of enzymes; endogenous in cells; host or cells: RBL-1 (rat basophilic leukemia cells), 10,000×g supernatant of homogenate
T2 sequence (P12527 1-673): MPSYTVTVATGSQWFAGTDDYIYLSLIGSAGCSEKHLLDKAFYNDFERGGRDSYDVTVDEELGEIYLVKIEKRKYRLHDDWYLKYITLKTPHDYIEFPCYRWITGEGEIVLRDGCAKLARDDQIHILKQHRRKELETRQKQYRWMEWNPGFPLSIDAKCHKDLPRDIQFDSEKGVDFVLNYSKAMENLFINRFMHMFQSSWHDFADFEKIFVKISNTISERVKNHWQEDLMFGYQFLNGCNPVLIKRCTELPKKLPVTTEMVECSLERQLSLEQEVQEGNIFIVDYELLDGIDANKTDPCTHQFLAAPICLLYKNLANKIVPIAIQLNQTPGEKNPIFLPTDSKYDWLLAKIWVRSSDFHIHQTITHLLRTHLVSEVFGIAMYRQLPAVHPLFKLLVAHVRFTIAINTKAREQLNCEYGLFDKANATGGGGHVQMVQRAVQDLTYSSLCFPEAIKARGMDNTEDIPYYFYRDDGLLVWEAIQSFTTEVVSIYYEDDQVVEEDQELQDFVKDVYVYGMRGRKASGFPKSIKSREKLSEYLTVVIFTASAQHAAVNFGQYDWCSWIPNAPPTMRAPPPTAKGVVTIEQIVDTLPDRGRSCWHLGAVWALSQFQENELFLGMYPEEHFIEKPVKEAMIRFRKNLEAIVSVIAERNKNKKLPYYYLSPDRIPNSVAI
Procedure: as §1, §2, §3

SMILES	% INHIBITION CO (Procedure II) [1] [%]	IC50 [1] [nM]	% INHIBITION 5-LO (Procedure II) [2] [%]	IC50 [2] [nM]
COc1ccc(-n2nc(COC(=O)NO)cc2-c2ccc(Cl)cc2)cc1 [1-A]	34	180	20	1270
COc1ccc(-n2nc(COC(=O)N(C)O)cc2-c2ccc(Cl)cc2)cc1 [1-B]	52	1400	85	480
COc1ccc(-n2nc(COC(=O)N(O)C(C)C)cc2-c2ccc(Cl)cc2)cc1 [1-C]	80	1100	88	1020
COc1ccc(-n2nc(COC(=O)NO)c(Br)c2-c2ccc(Cl)cc2)cc1 [1-D]	36	300	28	840
COc1ccc(-n2nc(COC(=O)N(C)O)c(Br)c2-c2ccc(Cl)cc2)cc1 [1-E]	43	170	85	280
COc1ccc(-n2nc(COC(=O)N(O)C(C)C)c(Br)c2-c2ccc(Cl)cc2)cc1 [1-F]	0	880	63	120
COc1ccc(-n2nc(COC(=O)NO)c(Cl)c2-c2ccc(Cl)cc2)cc1 [1-G]	18	950	25	750
COc1ccc(-n2nc(COC(=O)N(C)O)c(Cl)c2-c2ccc(Cl)cc2)cc1 [1-H]	41	220	83	< 100
COc1ccc(-n2nc(COC(=O)N(O)C(C)C)c(Cl)c2-c2ccc(Cl)cc2)cc1 [1-I]	3	1630	83	230
COc1ccc(-n2nc(COC(=O)NO)cc2-c2ccc(C)cc2)cc1 [1-J]	87	180	33	1750
COc1ccc(-n2nc(COC(=O)N(C)O)cc2-c2ccc(C)cc2)cc1 [1-K]	100	150	58	300
COc1ccc(-n2nc(COC(=O)N(O)C(C)C)cc2-c2ccc(C)cc2)cc1 [1-L]	64	1700	86	480
COc1ccc(-n2nc(COC(=O)NO)c(Br)c2-c2ccc(C)cc2)cc1 [1-M]	85	1460	63	5300
COc1ccc(-n2nc(COC(=O)N(C)O)c(Br)c2-c2ccc(C)cc2)cc1 [1-N]	100	1140	74	410
COc1ccc(-n2nc(COC(=O)N(O)C(C)C)c(Br)c2-c2ccc(C)cc2)cc1 [1-O]	82	3120	81	180
COc1ccc(-n2nc(COC(=O)NO)c(Cl)c2-c2ccc(C)cc2)cc1 [1-P]	0	1090	30	890
COc1ccc(-n2nc(COC(=O)N(C)O)c(Cl)c2-c2ccc(C)cc2)cc1 [1-Q]	82	210	88	50

SMILES	% INHIBITION CO (Procedure II) [1] [%]	IC50 [1] [nM]	% INHIBITION 5-LO (Procedure II) [2] [%]	IC50 [2] [nM]
COc1ccc(-n2nc(COC(=O)N(O)C(C)C)c(Cl)c2-c2ccc(C)cc2)cc1 [1-R]	8	3800	87	100
COc1ccc(-n2nc(CCOC(=O)N(C)O)cc2-c2ccc(Cl)cc2)cc1 [2-A]	44	1950	82	60
COc1ccc(-n2nc(CCOC(=O)N(O)C(C)C)cc2-c2ccc(Cl)cc2)cc1 [2-B]	55	500	84	100
COc1ccc(-n2nc(CCOC(=O)N(C)O)c(Cl)c2-c2ccc(Cl)cc2)cc1 [2-C]	41	2720	69	470
COc1ccc(-n2nc(CCOC(=O)N(O)C(C)C)c(Cl)c2-c2ccc(Cl)cc2)cc1 [2-D]	1.5	250	70	70
COc1ccc(-n2nc(CCOC(=O)N(C)O)c(Br)c2-c2ccc(Cl)cc2)cc1 [2-E]	5.5	2700	72	190
COc1ccc(-n2nc(CCOC(=O)N(O)C(C)C)c(Br)c2-c2ccc(Cl)cc2)cc1 [2-F]	4	410	71	140
COc1ccc(-n2nc(CCOC(=O)N(C)O)cc2-c2ccc(C)cc2)cc1 [2-G]	100	400	82	640
COc1ccc(-n2nc(CCOC(=O)N(O)C(C)C)cc2-c2ccc(C)cc2)cc1 [2-H]	100	40	83	60
COc1ccc(-n2nc(CCOC(=O)N(C)O)c(Cl)c2-c2ccc(C)cc2)cc1 [2-I]	52	2010	78	100
COc1ccc(-n2nc(CCOC(=O)N(O)C(C)C)c(Cl)c2-c2ccc(C)cc2)cc1 [2-J]	42	480	74	30
COc1ccc(-n2nc(CCOC(=O)NO)c(Br)c2-c2ccc(C)cc2)cc1 [2-K]	35	410	59	680
COc1ccc(-n2nc(CCOC(=O)N(C)O)c(Br)c2-c2ccc(C)cc2)cc1 [2-L]	39	830	75	90
COc1ccc(-n2nc(CCCOC(=O)NO)cc2-c2ccc(Cl)cc2)cc1 [3-A]	67	3000	83	3000
COc1ccc(-n2nc(CCCOC(=O)N(C)O)cc2-c2ccc(Cl)cc2)cc1 [3-B]	65	6340	96	120
COc1ccc(-n2nc(CCCOC(=O)N(O)C(C)C)cc2-c2ccc(Cl)cc2)cc1 [3-C]	72	1780	80	30
COc1ccc(-n2nc(CCCOC(=O)N(C)O)c(Cl)c2-c2ccc(Cl)cc2)cc1 [3-D]	100	2250	85	100
